The supplement of paper PMC10307832

Assays:
Assay in all cases: relative viability (nuclei count vs DMSO), 5 days (fraction); higher = more cells survive
[1] = compound: Cc1nc(NC(=O)N2CCC[C@H]2C(N)=O)sc1-c1ccnc(C(C)(C)C(F)(F)F)c1 [Alpelisib] + CC(=O)c1c(C)c2cnc(Nc3ccc(N4CCNCC4)cn3)nc2n(C2CCCC2)c1=O [Palbociclib] (partner 0.5 µM)
How it was run: (§1)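 Lung cancer cell lines in 1536-well plates were dosed by pin tool the day after seeding, either with one drug alone or with a fixed anchor-drug dose plus five library-drug doses (not always all listed) in √10 steps. After 5 days, cells were fixed and their nuclei stained in one step (final 0.05% Triton X-100, 1% formaldehyde, 1 ug/ml Hoechst), then counted on 4× images. Relative viability is the nuclei count in treated wells divided by that in vehicle wells. Values are medians of duplicate plates.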

[2] = compound: CCCS(=O)(=O)Nc1ccc(F)c(C(=O)c2c[nH]c3ncc(-c4ccc(Cl)cc4)cc23)c1F [Vemurafenib] + N=C(N)NC(=N)NCCc1ccccc1 [Phenformin] (partner 250 µM)
How it was run: as §1

[3] = compound: COc1cccc2cc(-c3nc([C@H]4CC[C@H](C(=O)O)CC4)n4ncnc(N)c34)[nH]c12 [OSI-027] + Cc1nc(NC(=O)N2CCC[C@H]2C(N)=O)sc1-c1ccnc(C(C)(C)C(F)(F)F)c1 [Alpelisib] (partner 2 µM)
How it was run: as §1

[4] = compound: Cc1nc(NC(=O)N2CCC[C@H]2C(N)=O)sc1-c1ccnc(C(C)(C)C(F)(F)F)c1 [Alpelisib] + CS(=O)(=O)N1CCN(Cc2cc3nc(-c4cccc5[nH]ncc45)nc(N4CCOCC4)c3s2)CC1 [Pictilisib] (partner 1 µM)
How it was run: as §1

UMC-11
relative viability ([1]; first compound 0.04 µM): 0.333 | relative viability ([1]; first compound 0.1265 µM): 0.3 | relative viability ([1]; first compound 0.4 µM): 0.357 | relative viability ([1]; first compound 1.265 µM): 0.307 | relative viability ([1]; first compound 4 µM): 0.328 | relative viability ([2]; first compound 0.03162 µM): 0.29 | relative viability ([2]; first compound 0.1 µM): 0.315 | relative viability ([2]; first compound 0.3162 µM): 0.227 | relative viability ([2]; first compound 1 µM): 0.315 | relative viability ([3]; first compound 0.01 µM): 1.09 | relative viability ([3]; first compound 0.03162 µM): 0.818 | relative viability ([3]; first compound 0.1 µM): 0.881 | relative viability ([3]; first compound 0.3162 µM): 0.597 | relative viability ([3]; first compound 1 µM): 0.49 | relative viability ([4]; first compound 0.04 µM): 0.832 | relative viability ([4]; first compound 0.1265 µM): 0.883 | relative viability ([4]; first compound 0.4 µM): 0.877 | relative viability ([4]; first compound 1.265 µM): 0.922 | relative viability ([4]; first compound 4 µM): 0.772
